# What was measured:
# [1] = skeletal imaging prior to 1971; cited from earlier work
# [2] = monoenergetic; cited from earlier work
# [3] = Subramanian and McAfee, Radiology 1971; cited from earlier work
# [4] = long chain polyphosphate material; cited from earlier work
# [5] = compared with stannous chloride
molecule,measurement,setting,value
"[85Sr] [Strontium-85, strontium-85]",scan performance (in words),[1],poor quality scans
"[18FH] [Fluorine-18, fluorine-18]",scan performance (in words),[1],good agent
[99Tc] [technetium-99m],gamma emission energy,[2],140 KeV
"[87Sr] [Strontium-87m, strontium-87m]",scan performance (in words),[1],high blood background
tripolyphosphate,skeletal uptake / localization (in words),[3],good skeletal uptake of activity
same,stability with respect to hydrolysis (in words),[4],instability of the long chain polyphosphate material with respect to hydrolysis
Stannous fluoride,stability to hydrolysis in aqueous solution (in words),[5],more stable to hydrolysis in aqueous solution than stannous chloride

# Source: US3984531A, “Technetium-99m-tin-monofluorophosphate complex” (The Radiochemical Centre Limited, priority 1973, dated 1976)
